Laboratory results published in paper PMC11653366, “The conformation of the nSrc specificity-determining loop in the Src SH3 domain is modulated by a WX conserved sequence motif found in SH3 domains” (Frontiers in Molecular Biosciences, 2024).
“And” between values parts separate entries of the source, which are not always exact repeats. Equal entries are not always repeated. Where two headings read alike, the source gives them in different places. Peptide text beside a SMILES is read from it. * marks the point of attachment. FITC = O=C1OC2(c3ccc(O)cc3Oc3cc(O)ccc32)c2ccc(NC(=S)*)cc21; Ahx = NCCCCCC(=O)O

Columns and labels:
[1] = target: T1, C100W Abl SH3 (Homo sapiens, UniProt P00519, C100W); test: Fluorescence anisotropy binding, C100W Abl SH3; details: 30 nM fluorescent peptide, running buffer + 0.1 mg/mL BSA + 0.5 mM Thesit, average of triplicate experiments, >1,000 = undetectable
T1 construct: His6-SUMO (N, cleaved yes); made in house; host or cells: Escherichia coli BL21 DE3
T1 sequence (P00519 61-121 C100W limits assumed): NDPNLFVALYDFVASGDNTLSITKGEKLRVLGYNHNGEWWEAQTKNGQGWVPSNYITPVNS
Description: (§1) Sequences corresponding to the Abl and Src SH3 (residues 84-145, UniProt ID SRC_HUMAN) domains were used for the wild-type SH3 domains. All proteins were expressed as His6-SUMO fusion proteins using the pET28a (+) plasmid (Genscript). Expression and purification protocols were similar to those used previously for other SLiM-binding domains [([Tahti et al., 2023]; [Gao et al., 2020]; [Wofford et al., 2021])]. All sequences used are in the Supporting Information.
(§2) Briefly, plasmids were transformed into BL21 DE3 chemically competent Escherichia coli cells. Selected colonies were grown in Terrific Broth (TB) at 37°C with shaking at 210 rpm. Once an optical density (OD) of 0.6–0.8 at λ = 600 nm was reached, protein expression was induced by the addition of 0.15 mM isopropyl-β-D-1-thiogalactopyranoside (IPTG) for 16–18 h at 18°C. […] SDS-PAGE was used to assess protein purity and the absorbance at λ = 280 nm with the calculated extinction coefficient (s), by Expasy ProtParam, was used to calculate protein concentration ([Wilkins et al., 1999]).
(§3) Fluorescence anisotropy assays were performed using a BioTek Synergy H1 plate reader, as previously described [([Tahti et al., 2023]; [Gao et al., 2020]; [Wofford et al., 2021]; [Valgardson et al., 2019])]. […] Determined K D values were the average calculated from triplicate experiments ([Cushing et al., 2008]). […]

[2] = target: T2, SrcAbl SH3 (Homo sapiens, UniProt P12931, D120E/E100D/E118N/E96V/R98S/S97A/T101N/T117H/T99G); test: Fluorescence anisotropy binding, SrcAbl SH3 chimera (Src SH3 with Abl RT and nSrc loops); details: 30 nM fluorescent peptide, running buffer + 0.1 mg/mL BSA + 0.5 mM Thesit, average of triplicate experiments
T2 construct: His6-SUMO (N, cleaved yes); made in house; host or cells: Escherichia coli BL21 DE3

[3] = target: T3, Abl SH3 (Homo sapiens, UniProt P00519); test: Fluorescence anisotropy binding, Abl SH3; details: 30 nM fluorescent peptide, running buffer + 0.1 mg/mL BSA + 0.5 mM Thesit, average of triplicate experiments
T3 construct: His6-SUMO (N, cleaved yes); made in house; host or cells: Escherichia coli BL21 DE3
T3 sequence (P00519 61-121 limits assumed): as the sequence (P00519 61-121 C100W limits assumed) above, with W40C counted along it
Description: as §1, §2, §3

[4] = target: T4, W122C SrcAbl SH3 (Homo sapiens, UniProt P12931, D120E/E100D/E118N/E96V/R98S/S97A/T101N/T117H/T99G/W122C); test: Fluorescence anisotropy binding, W122C SrcAbl SH3; details: 30 nM fluorescent peptide, running buffer + 0.1 mg/mL BSA + 0.5 mM Thesit, average of triplicate experiments
T4 construct: His6-SUMO (N, cleaved yes); made in house; host or cells: Escherichia coli BL21 DE3
Description: (§4) Therefore, we wanted to engineer chimeric proteins to test if these loops alone could mediate specificity switching. In our chimeras, we swapped both the RT (sequence: ^96ESRTET^101) and nSrc (^117TEGD^120) loops of Src with the RT (^73VASGDN^78) and nSrc (^95HNGE^98) loop sequences of Abl, and vice versa in each SH3 domain. We termed the resulting proteins, SrcAbl and AblSrc, where the subscript indicates the sequence identity of both the RT and nSrc loops.
(§5) Sequences corresponding to the Abl and Src SH3 (residues 84-145, UniProt ID SRC_HUMAN) domains were used for the wild-type SH3 domains. All proteins were expressed as His6-SUMO fusion proteins using the pET28a (+) plasmid (Genscript). […]
(§6) Briefly, plasmids were transformed into BL21 DE3 chemically competent Escherichia coli cells. […] SDS-PAGE was used to assess protein purity and the absorbance at λ = 280 nm with the calculated extinction coefficient (s), by Expasy ProtParam, was used to calculate protein concentration ([Wilkins et al., 1999]).
as §3

[5] = target: T5, AblSrc SH3 (Homo sapiens, UniProt P00519, A74S/D77E/E98D/G76T/H95T/N78T/N96E/S75R/V73E); test: Fluorescence anisotropy binding, AblSrc SH3 chimera (Abl SH3 with Src RT and nSrc loops); details: 30 nM fluorescent peptide, running buffer + 0.1 mg/mL BSA + 0.5 mM Thesit, average of triplicate experiments, >1,000 = undetectable
T5 construct: His6-SUMO (N, cleaved yes); made in house; host or cells: Escherichia coli BL21 DE3
T5 sequence (P00519 61-121 V73E/A74S/S75R/G76T/D77E/N78T/H95T/N96E/E98D limits assumed): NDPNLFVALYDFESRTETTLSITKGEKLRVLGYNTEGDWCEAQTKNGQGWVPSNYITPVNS
Description: as §4, §5, §6, §3

[6] = target: T6, Src SH3 (Homo sapiens, UniProt P12931); test: Fluorescence anisotropy binding, Src SH3; details: 30 nM fluorescent peptide, running buffer + 0.1 mg/mL BSA + 0.5 mM Thesit, average of triplicate experiments, >1,000 = no binding
T6 construct: His6-SUMO (N, cleaved yes); made in house; host or cells: Escherichia coli BL21 DE3
Description: (§7) Fluorescence anisotropy assays were performed using a BioTek Synergy H1 plate reader, as previously described [([Tahti et al., 2023]; [Gao et al., 2020]; [Wofford et al., 2021]; [Valgardson et al., 2019])]. Solution conditions included running buffer plus 0.1 mg/mL bovine serine albumin (BSA) and 0.5 mM Thesit, with 30 nM fluorescent peptide. Determined K D values were the average calculated from triplicate experiments ([Cushing et al., 2008]). K d values were determined as previously, and as the midpoint between the anisotropy resulting from the free reporter peptide and SH3-peptide complex [([Cushing et al., 2008]; [Vouilleme et al., 2010]; [Amacher et al., 2013]; [Amacher et al., 2014])].

[7] = target: T7, W122C Src SH3 (Homo sapiens, UniProt P12931, W122C); test: Fluorescence anisotropy binding, W122C Src SH3; details: 30 nM fluorescent peptide, running buffer + 0.1 mg/mL BSA + 0.5 mM Thesit, average of triplicate experiments
T7 construct: His6-SUMO (N, cleaved yes); made in house; host or cells: Escherichia coli BL21 DE3
Description: as §7

[8] = target: Fyn SH3; set-up: method as in Pisabarro and Serrano, 1996; Pisabarro et al., 1998; details: Fyn SH3, previously published; ref Pisabarro and Serrano, 1996; Pisabarro et al., 1998; read-out: affinity (K D); cited from earlier work
[9] = target: T3, Abl SH3; set-up: method as in Pisabarro and Serrano, 1996; Pisabarro et al., 1998; details: Abl SH3, previously published; ref Pisabarro and Serrano, 1996; Pisabarro et al., 1998; read-out: affinity (K D); cited from earlier work

Row | Compound | Kd [1] | Kd [2] | Kd [3] | Kd [4] | Kd [5] | Kd [6] | Kd [7] | Kd [8] | Kd [9]
1 | CC(C)C[C@H](NC(=O)CCCCCNC(=S)Nc1ccc2c(c1)C(=O)OC21c2ccc(O)cc2Oc2cc(O)ccc21)C(=O)N[C@@H](C)C(=O)N[C@@H](CO)C(=O)N[C@@H](CCCNC(=N)N)C(=O)N1CCC[C@H]1C(=O)N[C@@H](CC(C)C)C(=O)N1CCC[C@H]1C(=O)N[C@@H](CC(C)C)C(=O)N[C@@H](CC(C)C)C(=O)N1CCC[C@H]1C(=O)O [F*-PLLP] | > 1000 µM | 140 ± 20 µM | > 1000 µM | > 1000 µM | > 1000 µM | – | – | – | –
2 | C[C@H](NC(=O)CCCCCNC(=S)Nc1ccc2c(c1)C(=O)OC21c2ccc(O)cc2Oc2cc(O)ccc21)C(=O)N1CCC[C@H]1C(=O)N[C@H](C(=O)N[C@@H](Cc1ccc(O)cc1)C(=O)N[C@@H](CO)C(=O)N1CCC[C@H]1C(=O)N1CCC[C@H]1C(=O)N1CCC[C@H]1C(=O)N1CCC[C@H]1C(=O)N1CCC[C@H]1C(=O)O)[C@@H](C)O [F*-p40] ({FITC-Ahx}-APTYSPPPPP-OH) | 55 ± 20 µM | 130 ± 40 µM | 3.1 ± 0.4 µM | 450 ± 190 µM | 210 ± 30 µM | > 1000 µM | > 1000 µM | – | –
3 | C[C@H](N)C(=O)N1CCC[C@H]1C(=O)N[C@H](C(=O)N[C@@H](Cc1ccc(O)cc1)C(=O)N[C@@H](CO)C(=O)N1CCC[C@H]1C(=O)N1CCC[C@H]1C(=O)N1CCC[C@H]1C(=O)N1CCC[C@H]1C(=O)N1CCC[C@H]1C(=O)O)[C@@H](C)O [p40] (H-APTYSPPPPP-OH; N-terminus and C-terminus assumed) | – | – | – | – | – | > 1000 µM | – | 472 µM and 470 µM | –
4 | RAPTMPPPLPP [initial ligand, derived from the 3BP1 protein] | – | – | – | – | – | – | – | 30 µM | 30 µM
